Patent publication US20110319416A1, “Subunit Selective NMDA Receptor Antagonists For The Treatment Of Neurological Conditions” (EMORY UNIVERSITY, priority 2009, published 2011)
Where two headings read alike, the source gives them in different places. Blank lines part the entries; values can stand above or below the molecule they belong to.

Assays:
Assay type in all cases: cell-based
[1] = molecular target: NR1/NR2D (Rattus norvegicus, UniProt P35439+Q62645); assay: Two electrode voltage clamp, Xenopus oocytes expressing recombinant NR1/NR2D; conditions: for remaining activity at 100 µM: read-out: 2D percent effect at the maximum tested concentration
Procedure: (§1) Quality of synthesized cRNA was assessed by gel electrophoresis, and quantity was estimated by spectroscopy and gel electrophoresis. Stage V and VI oocytes were surgically removed from the ovaries of large, well-fed and healthy Xenopus laevis anesthetized with 3-amino-benzoic acid ethyl ester (3 gm/l) as previously described. Clusters of isolated oocytes were incubated with 292 U/ml Worthington (Freehold, N.J.) type IV collagenase or 1.3 mg/ml collagenase (Life Technologies, Gaithersburg, MD; 17018-029) for 2 hr in Ca^2+-free solution comprised of (in mM) 115 NaCl, 2.5 KCl, and 10 HEPES, pH 7.5, with slow agitation to remove the follicular cell layer. Oocytes were then washed extensively in the same solution supplemented with 1.8 mM CaCl2 and maintained in Barth's solution comprised of (in mM): 88 NaCl, 1 KCl, 2.4 NaHCO3, 10 HEPES, 0.82 MgSO4, 0.33 Ca(NO3)2, and 0.91 CaCl2 and supplemented with 100 μg/m1 gentamycin, 10 μg/ml streptomycin, and 10 μg/ml penicillin. Oocytes were manually defolliculated and injected within 24 hrs of isolation with 3-5 ng of NR1 subunit cRNA and 7-10 ng of NR2 cRNA subunit in a 50 nl volume, or 5-10 ng of AMPA or kainate receptor cRNAs in a 50 nl volume, and incubated in Barth's solution at 18° C. for 1-7 d. Glass injection pipettes had tip sizes ranging from 10-20 microns, and were backfilled with mineral oil.
(§2) Two electrode voltage-clamp recordings were made 2-7 days post-injection as previously described. Oocytes were placed in a dual-track plexi-glass recording chamber with a single perfusion line that splits in a Y-configuration to perfuse two oocytes. Dual recordings were made at room temperature (23° C.) using two Warner OC725B two-electrode voltage clamp amplifiers, arranged as recommended by the manufacturer. Glass microelectrodes (1-10 Megaohms) were filled with 300 mM KCl (voltage electrode) or 3 M KCl (current electrode). The bath clamps communicated across silver chloride wires placed into each side of the recording chamber, both of which were assumed to be at a reference potential of 0 mV. Oocytes were perfused with a solution comprised of (in mM) 90 NaCl, 1 KCl, 10 HEPES, and 0.5 BaCl2; pH was adjusted by addition of 1-3 M NaOH of HC1 to 7.4. Oocytes were recorded under voltage clamp at −40 mV. […] In some experiments, 10 μM EDTA was obtained by adding a 1:1000 dilution of 10 mM EDTA, in order to chelate contaminant divalent ions such as Zn^2+. […] Concentration effect curves consisting of 4 to 8 concentrations were obtained in this manner. The baseline leak current at −40 mV was measured before and after recording, and the full recording linearly corrected for any change in leak current. […] Each experiment consisted of recordings from 3 to 10 oocytes obtained from a single frog. Results from multiple experiments were pooled, and the average percent responses at antagonist concentrations were fitted by the equation,
(§3) Percent Response=(100−minimum)/(1+([conc]/IC50)nH)+minimum

[2] = molecular target: NR1/NR2B (Rattus norvegicus, UniProt P35439+Q00960); assay: Two electrode voltage clamp, Xenopus oocytes expressing recombinant NR1/NR2B; conditions: for remaining activity at 100 µM: read-out: 2B percent effect at the maximum tested concentration
NR1/NR2B, sequence (Q00960 27-1482, other chains not shown): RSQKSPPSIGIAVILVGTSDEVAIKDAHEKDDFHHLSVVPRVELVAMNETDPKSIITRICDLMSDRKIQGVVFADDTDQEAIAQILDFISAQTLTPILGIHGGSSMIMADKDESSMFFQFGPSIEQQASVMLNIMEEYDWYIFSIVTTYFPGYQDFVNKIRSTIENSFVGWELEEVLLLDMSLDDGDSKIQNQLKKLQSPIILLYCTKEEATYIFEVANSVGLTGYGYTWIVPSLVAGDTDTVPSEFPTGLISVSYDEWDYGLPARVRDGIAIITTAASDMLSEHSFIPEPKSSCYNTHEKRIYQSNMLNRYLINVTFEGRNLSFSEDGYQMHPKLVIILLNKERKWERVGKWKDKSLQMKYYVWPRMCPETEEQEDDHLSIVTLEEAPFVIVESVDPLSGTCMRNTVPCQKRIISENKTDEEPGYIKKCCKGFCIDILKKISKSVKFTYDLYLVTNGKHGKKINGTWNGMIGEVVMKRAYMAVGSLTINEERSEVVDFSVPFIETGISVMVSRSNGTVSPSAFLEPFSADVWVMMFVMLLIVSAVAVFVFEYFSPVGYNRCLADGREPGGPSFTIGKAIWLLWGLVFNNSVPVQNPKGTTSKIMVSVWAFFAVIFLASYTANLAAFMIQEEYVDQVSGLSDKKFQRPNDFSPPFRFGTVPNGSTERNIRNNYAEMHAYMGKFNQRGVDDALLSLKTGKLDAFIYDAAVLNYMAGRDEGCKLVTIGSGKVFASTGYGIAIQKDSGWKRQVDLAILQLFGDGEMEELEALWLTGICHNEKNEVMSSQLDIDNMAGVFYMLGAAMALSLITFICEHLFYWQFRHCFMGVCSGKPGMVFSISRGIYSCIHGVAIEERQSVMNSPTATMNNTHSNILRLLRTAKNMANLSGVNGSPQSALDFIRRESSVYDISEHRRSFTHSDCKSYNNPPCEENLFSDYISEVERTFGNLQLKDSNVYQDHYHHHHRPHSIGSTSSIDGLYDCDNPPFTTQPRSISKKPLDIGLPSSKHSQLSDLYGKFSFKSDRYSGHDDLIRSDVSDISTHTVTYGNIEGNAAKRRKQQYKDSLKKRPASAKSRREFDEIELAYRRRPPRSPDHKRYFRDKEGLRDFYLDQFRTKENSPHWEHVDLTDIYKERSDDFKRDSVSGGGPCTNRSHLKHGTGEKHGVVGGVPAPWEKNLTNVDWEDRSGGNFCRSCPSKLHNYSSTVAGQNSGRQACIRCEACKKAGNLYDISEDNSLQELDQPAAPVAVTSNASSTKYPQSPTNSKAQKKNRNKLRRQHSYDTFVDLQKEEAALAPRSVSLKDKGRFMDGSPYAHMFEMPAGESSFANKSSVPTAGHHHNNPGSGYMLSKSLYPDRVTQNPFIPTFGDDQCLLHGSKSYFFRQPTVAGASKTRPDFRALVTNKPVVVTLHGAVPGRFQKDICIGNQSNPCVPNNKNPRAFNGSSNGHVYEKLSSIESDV
Procedure: as §1, §2, §3

[3] = molecular target: NR1/NR2A (Rattus norvegicus, UniProt P35439+Q00959); assay: Two electrode voltage clamp, Xenopus oocytes expressing recombinant NR1/NR2A; conditions: for IC50: logistic fit, minimum forced to 0, read-out: 2A IC50; for remaining activity at 100 µM: read-out: 2A percent effect at the maximum tested concentration
NR1/NR2A, sequence (Q00959 23-1464, other chains not shown): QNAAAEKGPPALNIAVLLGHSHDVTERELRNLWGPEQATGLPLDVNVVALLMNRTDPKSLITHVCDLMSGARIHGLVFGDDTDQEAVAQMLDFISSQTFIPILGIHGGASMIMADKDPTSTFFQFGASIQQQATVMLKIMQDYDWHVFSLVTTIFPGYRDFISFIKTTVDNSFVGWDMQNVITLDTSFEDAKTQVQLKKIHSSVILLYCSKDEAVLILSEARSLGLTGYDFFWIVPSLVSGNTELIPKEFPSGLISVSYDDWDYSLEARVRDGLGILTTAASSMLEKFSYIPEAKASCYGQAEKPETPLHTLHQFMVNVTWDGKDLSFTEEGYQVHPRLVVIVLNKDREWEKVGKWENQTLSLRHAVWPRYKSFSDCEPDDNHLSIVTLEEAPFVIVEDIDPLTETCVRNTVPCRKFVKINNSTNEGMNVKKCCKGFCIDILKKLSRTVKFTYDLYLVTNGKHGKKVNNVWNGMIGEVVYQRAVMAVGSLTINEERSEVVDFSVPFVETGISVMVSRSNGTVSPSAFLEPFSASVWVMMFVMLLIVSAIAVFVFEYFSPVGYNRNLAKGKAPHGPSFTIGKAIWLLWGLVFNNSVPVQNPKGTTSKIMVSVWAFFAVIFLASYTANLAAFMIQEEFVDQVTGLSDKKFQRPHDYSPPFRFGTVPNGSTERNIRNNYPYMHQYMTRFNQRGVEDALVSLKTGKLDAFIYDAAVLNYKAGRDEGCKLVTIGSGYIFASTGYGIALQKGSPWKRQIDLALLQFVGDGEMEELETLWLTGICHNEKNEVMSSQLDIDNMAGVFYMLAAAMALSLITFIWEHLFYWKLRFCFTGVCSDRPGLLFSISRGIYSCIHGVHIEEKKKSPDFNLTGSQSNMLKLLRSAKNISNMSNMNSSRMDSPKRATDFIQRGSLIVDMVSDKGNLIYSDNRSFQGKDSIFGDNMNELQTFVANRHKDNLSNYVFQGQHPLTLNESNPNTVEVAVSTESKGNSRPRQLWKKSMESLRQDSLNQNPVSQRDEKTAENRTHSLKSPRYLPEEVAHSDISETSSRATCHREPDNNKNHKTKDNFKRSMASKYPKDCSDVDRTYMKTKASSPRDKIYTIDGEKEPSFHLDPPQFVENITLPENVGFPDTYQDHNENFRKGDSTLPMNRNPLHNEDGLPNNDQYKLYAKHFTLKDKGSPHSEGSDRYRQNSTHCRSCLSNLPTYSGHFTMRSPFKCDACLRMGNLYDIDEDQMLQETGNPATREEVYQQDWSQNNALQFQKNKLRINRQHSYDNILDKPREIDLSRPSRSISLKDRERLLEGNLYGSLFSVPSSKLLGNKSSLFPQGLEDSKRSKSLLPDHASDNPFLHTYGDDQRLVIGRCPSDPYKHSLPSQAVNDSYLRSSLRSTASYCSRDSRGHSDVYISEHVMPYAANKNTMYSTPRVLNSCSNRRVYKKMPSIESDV
Procedure: as §1, §2, §3

[4] = molecular target: NR1/NR2C (Rattus norvegicus, UniProt P35439+Q00961); assay: Two electrode voltage clamp, Xenopus oocytes expressing recombinant NR1/NR2C; conditions: for remaining activity at 100 µM: read-out: 2C percent effect at the maximum tested concentration
NR1/NR2C, sequence (Q00961 20-1237, other chains not shown): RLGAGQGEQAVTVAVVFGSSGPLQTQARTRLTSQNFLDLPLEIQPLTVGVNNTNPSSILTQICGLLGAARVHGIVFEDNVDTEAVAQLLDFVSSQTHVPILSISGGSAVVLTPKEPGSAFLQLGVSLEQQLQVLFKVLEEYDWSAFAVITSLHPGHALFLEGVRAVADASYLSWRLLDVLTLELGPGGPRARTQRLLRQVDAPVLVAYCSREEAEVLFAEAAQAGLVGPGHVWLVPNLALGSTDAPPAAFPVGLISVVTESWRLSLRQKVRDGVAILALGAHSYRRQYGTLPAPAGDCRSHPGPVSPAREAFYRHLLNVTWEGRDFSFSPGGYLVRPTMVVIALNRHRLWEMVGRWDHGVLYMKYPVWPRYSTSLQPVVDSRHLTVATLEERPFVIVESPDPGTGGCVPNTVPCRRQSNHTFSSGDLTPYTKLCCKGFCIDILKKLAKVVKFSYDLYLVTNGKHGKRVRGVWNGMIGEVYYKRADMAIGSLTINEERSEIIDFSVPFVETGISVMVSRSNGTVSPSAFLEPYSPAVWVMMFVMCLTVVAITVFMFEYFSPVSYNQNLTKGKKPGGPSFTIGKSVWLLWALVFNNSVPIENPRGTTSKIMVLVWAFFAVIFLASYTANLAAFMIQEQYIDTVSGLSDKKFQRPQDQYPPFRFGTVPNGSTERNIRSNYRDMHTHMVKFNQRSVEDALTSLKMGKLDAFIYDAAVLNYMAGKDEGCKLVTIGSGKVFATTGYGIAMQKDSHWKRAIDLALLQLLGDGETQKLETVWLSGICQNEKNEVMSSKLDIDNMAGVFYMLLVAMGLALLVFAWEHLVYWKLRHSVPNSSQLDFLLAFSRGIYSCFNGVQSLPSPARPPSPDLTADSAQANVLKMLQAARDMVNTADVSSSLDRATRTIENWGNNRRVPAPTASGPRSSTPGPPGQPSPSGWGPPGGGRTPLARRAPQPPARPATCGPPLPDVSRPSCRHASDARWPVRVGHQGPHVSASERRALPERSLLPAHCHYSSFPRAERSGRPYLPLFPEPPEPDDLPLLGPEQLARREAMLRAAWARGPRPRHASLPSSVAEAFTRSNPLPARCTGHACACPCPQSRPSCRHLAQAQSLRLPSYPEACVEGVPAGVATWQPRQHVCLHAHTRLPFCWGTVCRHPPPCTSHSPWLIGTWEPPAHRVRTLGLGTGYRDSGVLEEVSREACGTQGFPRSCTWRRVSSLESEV
Procedure: as §1, §2, §3

[5] = logistic fit, minimum forced to 0, read-out: 2D IC50
[6] = logistic fit, minimum forced to 0, read-out: 2C IC50

Compound: CCN(CC)C(=S)Oc1ccc(C(=O)Nc2ccc(F)cc2)cc1 [compound 1379]
- remaining activity at 100 µM ([2]; at 100 μM): 88%
- remaining activity at 100 µM ([3]; at 100 μM): 99%
- IC50 [1, 5]: 55 µM
- IC50 [4, 6]: 247 µM

Compound: CCN(CC)C(=O)Oc1ccc(C(=O)Nc2cccc3[nH]ccc23)cc1 [1063-26]
- IC50 [2]: 560 µM
- remaining activity at 100 µM [3]: 88%
- IC50 [1]: 6 µM
- IC50 [4]: 8 µM

Compound: CCN(CC)C(=O)Oc1ccccc1C(=O)Nc1cccc2ccccc12 [1063-25]
- remaining activity at 100 µM ([2]; at 100 μM): 88%
- remaining activity at 100 µM ([3]; at 100 μM): 88%
- remaining activity at 100 µM [1]: 91%
- remaining activity at 100 µM [4]: 83%

Compound: CN(C)C(=O)Oc1ccc(C(=O)Nc2cccc3ccccc23)cc1 [1063-3]
- IC50 [2]: 1450 µM
- remaining activity at 100 µM [3]: 110%
- IC50 [1]: 194 µM
- IC50 [4]: 619 µM

Compound: CC(C)N(C(=O)Oc1ccc(C(=O)Nc2ccc3cc[nH]c3c2)cc1)C(C)C [1063-15]
- IC50 [2]: 44 µM
- remaining activity at 100 µM [3]: 74%
- IC50 [1]: 12 µM
- IC50 [4]: 11 µM

Compound: CCCCN(CCCC)C(=O)Oc1ccc(C(=O)Nc2cccc3ccccc23)cc1 [1063-8]
- remaining activity at 100 µM ([2]; at 100 μM): 88%
- remaining activity at 100 µM ([3]; at 100 μM): 135%
- remaining activity at 100 µM [1]: 87%

Compound: CCN(CC)C(=O)Oc1ccc(C(=O)Nc2cc(C)cc(C)c2)cc1 [1063-17]
- IC50 [2]: 89 µM
- remaining activity at 100 µM [3]: 79%
- IC50 [1]: 8 µM
- IC50 [4]: 18 µM

Compound: CC(C)N(C(=O)Oc1ccc(C(=O)Nc2ccc3[nH]ccc3c2)cc1)C(C)C [1063-16]
- remaining activity at 100 µM [2]: 81%
- remaining activity at 100 µM [3]: 100%
- IC50 [1]: 44 µM
- IC50 [4]: 30 µM

Results, then the molecule that gave them:

- IC50 [1, 5]: 32 µM
Compound: O=C(O)CCC(=O)N1N=C(c2c(-c3ccccc3)c3cc(Cl)ccc3[nH]c2=O)CC1c1ccccc1 (stereo not shown) [compound 1149]

- IC50 [1, 5]: 21 µM
Compound: O=C(O)CCC(=O)N1N=C(c2c(-c3ccccc3)c3cc(Br)ccc3[nH]c2=O)CC1c1ccccc1F (stereo not shown) [compound 1178]

- IC50 ([2]; logistic fit, minimum forced to 0, read-out: 2B IC50): 30 µM
- IC50 [3]: 24 µM
- IC50 [1, 5]: 4 µM
- IC50 [4, 6]: 7 µM
Compound: O=C(O)CCC(=O)N1N=C(c2c(-c3ccccc3)c3cc(Cl)ccc3[nH]c2=O)CC1c1cccc(Br)c1 (stereo not shown) [compound 1176]

- remaining activity at 100 µM ([2]; at 100 μM): 98%
- remaining activity at 100 µM ([3]; at 100 μM): 111%
- remaining activity at 100 µM [1]: 86%
- remaining activity at 100 µM [4]: 94%
Compound: CCC(CC)C(=O)Oc1ccc(C(=O)Nc2cccc3ccccc23)cc1 [1063-9]

- remaining activity at 100 µM ([2]; at 100 μM): 85%
- remaining activity at 100 µM ([3]; at 100 μM): 91%
- remaining activity at 100 µM [1]: 91%
- remaining activity at 100 µM [4]: 89%
Compound: O=C(Nc1cccc2ccccc12)c1ccc(Oc2nc3ccccc3s2)cc1 [1063-23]

- remaining activity at 100 µM ([2]; at 100 μM): 98%
- remaining activity at 100 µM ([3]; at 100 μM): 135%
- remaining activity at 100 µM [1]: 84%
Compound: O=C(Nc1cccc2ccccc12)c1ccc(OC(=O)N2CCCCC2)cc1 [1063-7]

- remaining activity at 100 µM ([2]; at 100 μM): 91%
- remaining activity at 100 µM ([3]; at 100 μM): 96%
- remaining activity at 100 µM [1]: 88%
- remaining activity at 100 µM [4]: 92%
Compound: O=C(Nc1cccc2ccccc12)c1ccc(Oc2nc(-c3ccccc3)cs2)cc1 [1063-22]

- remaining activity at 100 µM ([2]; at 100 μM): 88%
- remaining activity at 100 µM ([3]; at 100 μM): 102%
- IC50 [1, 5]: 527 µM
- IC50 [4, 6]: 687 µM
Compound: CCN(CC)C(=O)Nc1ccc(C(=O)Nc2cccc3ccccc23)cc1 [1063-11]

- remaining activity at 100 µM ([2]; at 100 μM): 83%
- IC50 [3]: 497 µM
- remaining activity at 100 µM [1]: 82%
- remaining activity at 100 µM [4]: 93%
Compound: CCN(CC)C(=O)c1ccc(C(=O)Nc2cccc3cc[nH]c23)cc1 [1063-27]

- IC50 [1, 5]: > 1000 µM
Compound: O=C(Nc1cccc2ccccc12)c1ccc(OC(=S)N2CCOCC2)cc1 [compound 1374]
